# Measured values published in ChEMBL document CHEMBL4304811, “Development of a Water-Soluble Indolylmaleimide Derivative IM-93 Showing Dual Inhibition of Ferroptosis and NETosis” (ACS Med Chem Lett, 2019).
# Assays:
# [1] = test system: Tyrosine-protein kinase ABL1 (Homo sapiens), P00519 [Q252H]; experiment: Binding affinity to human phosphorylated ABL1 Q252H mutant expressed in mammalian expression system assessed as residual binding level at 10 uM by Kinomescan method relative to control
# [2] = test system: Tyrosine-protein kinase ABL1 (Homo sapiens), P00519 [T315I]; experiment: Binding affinity to human non-phosphorylated ABL1 T315I mutant (S229 to K512 residues) expressed in mammalian expression system assessed as residual binding level at 10 uM by Kinomescan method relative to control
# [3] = molecular target: RAC-beta serine/threonine-protein kinase (Homo sapiens) (UniProt P31751); experiment: Binding affinity to wild-type human partial length AKT2 expressed in bacterial expression system assessed as residual binding level at 10 uM by Kinomescan method relative to control
# [4] = molecular target: Aurora kinase B (Homo sapiens) (UniProt Q96GD4); experiment: Binding affinity to wild-type human partial length AURKB (D25 to A303 residues) expressed in mammalian expression system assessed as residual binding level at 10 uM by Kinomescan method relative to control
# [5] = test system: Serine/threonine-protein kinase B-raf (Homo sapiens), P15056 [V600E]; experiment: Binding affinity to human partial length BRAF V600E mutant (S429 to E741 residues) expressed in mammalian expression system assessed as residual binding level at 10 uM by Kinomescan method relative to control
# Serine/threonine-protein kinase B-raf (Homo sapiens), P15056 [V600E], sequence (P15056 whole entry V600E, the tested form may be a part): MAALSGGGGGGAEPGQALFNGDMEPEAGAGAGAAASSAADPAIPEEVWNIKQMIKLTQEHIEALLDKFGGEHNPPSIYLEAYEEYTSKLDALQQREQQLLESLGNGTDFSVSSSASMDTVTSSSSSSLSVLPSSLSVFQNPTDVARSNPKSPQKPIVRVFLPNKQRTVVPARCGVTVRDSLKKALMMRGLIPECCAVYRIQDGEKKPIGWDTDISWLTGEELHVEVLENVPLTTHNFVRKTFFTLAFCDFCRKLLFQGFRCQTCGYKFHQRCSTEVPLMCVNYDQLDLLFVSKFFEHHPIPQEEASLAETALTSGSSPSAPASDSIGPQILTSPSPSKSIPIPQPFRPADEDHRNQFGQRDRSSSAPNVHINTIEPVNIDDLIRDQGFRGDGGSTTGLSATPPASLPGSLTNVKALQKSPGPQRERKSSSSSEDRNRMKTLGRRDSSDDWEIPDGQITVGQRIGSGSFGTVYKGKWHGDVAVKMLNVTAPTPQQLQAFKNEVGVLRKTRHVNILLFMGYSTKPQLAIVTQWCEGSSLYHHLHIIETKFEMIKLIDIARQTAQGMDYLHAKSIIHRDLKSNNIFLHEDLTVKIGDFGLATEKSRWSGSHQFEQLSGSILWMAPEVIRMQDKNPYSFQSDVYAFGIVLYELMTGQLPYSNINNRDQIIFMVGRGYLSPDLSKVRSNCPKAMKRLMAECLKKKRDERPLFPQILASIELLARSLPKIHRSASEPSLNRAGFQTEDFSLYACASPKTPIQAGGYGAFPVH
# [6] = molecular target: Serine/threonine-protein kinase Chk1 (Homo sapiens) (UniProt O14757); experiment: Binding affinity to wild-type human partial length CHEK1 (M1 to G289 residues) expressed in bacterial expression system assessed as residual binding level at 10 uM by Kinomescan method relative to control
# [7] = molecular target: Serine/threonine-protein kinase DCLK2 (Homo sapiens) (UniProt Q8N568); experiment: Binding affinity to wild-type human partial length DCAMKL2 (K273 to V664 residues) expressed in bacterial expression system assessed as residual binding level at 10 uM by Kinomescan method relative to control
# [8] = molecular target: Serine/threonine-protein kinase MRCK gamma (Homo sapiens) (UniProt Q6DT37); experiment: Binding affinity to wild-type human partial length DMPK2 (S46 to S408 residues) expressed in bacterial expression system assessed as residual binding level at 10 uM by Kinomescan method relative to control
# [9] = test system: Epidermal growth factor receptor (Homo sapiens), P00533 [T790M]; experiment: Binding affinity to human partial length EGFR T790M mutant (R669 to G1022 residues) expressed in mammalian expression system assessed as residual binding level at 10 uM by Kinomescan method relative to control
# [10] = molecular target: Tyrosine-protein kinase Fer (Homo sapiens) (UniProt P16591); experiment: Binding affinity to wild-type human partial length FER (S542 to T822 residues) expressed in bacterial expression system assessed as residual binding level at 10 uM by Kinomescan method relative to control
# [11] = test system: Receptor-type tyrosine-protein kinase FLT3 (Homo sapiens), P36888 [D835Y]; experiment: Binding affinity to human partial length FLT3 D835Y mutant (Q580 to Y969 residues) expressed in bacterial expression system assessed as residual binding level at 10 uM by Kinomescan method relative to control
# [12] = molecular target: Vascular endothelial growth factor receptor 3 (Homo sapiens) (UniProt P35916); experiment: Binding affinity to wild-type human partial length FLT4 (E821 to E1196 residues) expressed in bacterial expression system assessed as residual binding level at 10 uM by Kinomescan method relative to control
# [13] = molecular target: Insulin receptor-related protein (Homo sapiens) (UniProt P14616); experiment: Binding affinity to wild-type human partial length INSRR (R950 to E1278 residues) expressed in bacterial expression system assessed as residual binding level at 10 uM by Kinomescan method relative to control
# [14] = molecular target: Mitogen-activated protein kinase kinase kinase 10 (Homo sapiens) (UniProt Q02779); experiment: Binding affinity to wild-type human partial length MLK2 (V52 to W380 residues) expressed in bacterial expression system assessed as residual binding level at 10 uM by Kinomescan method relative to control
# Mitogen-activated protein kinase kinase kinase 10 (Homo sapiens), sequence (Q02779 whole entry, looked up, the tested form may be a part): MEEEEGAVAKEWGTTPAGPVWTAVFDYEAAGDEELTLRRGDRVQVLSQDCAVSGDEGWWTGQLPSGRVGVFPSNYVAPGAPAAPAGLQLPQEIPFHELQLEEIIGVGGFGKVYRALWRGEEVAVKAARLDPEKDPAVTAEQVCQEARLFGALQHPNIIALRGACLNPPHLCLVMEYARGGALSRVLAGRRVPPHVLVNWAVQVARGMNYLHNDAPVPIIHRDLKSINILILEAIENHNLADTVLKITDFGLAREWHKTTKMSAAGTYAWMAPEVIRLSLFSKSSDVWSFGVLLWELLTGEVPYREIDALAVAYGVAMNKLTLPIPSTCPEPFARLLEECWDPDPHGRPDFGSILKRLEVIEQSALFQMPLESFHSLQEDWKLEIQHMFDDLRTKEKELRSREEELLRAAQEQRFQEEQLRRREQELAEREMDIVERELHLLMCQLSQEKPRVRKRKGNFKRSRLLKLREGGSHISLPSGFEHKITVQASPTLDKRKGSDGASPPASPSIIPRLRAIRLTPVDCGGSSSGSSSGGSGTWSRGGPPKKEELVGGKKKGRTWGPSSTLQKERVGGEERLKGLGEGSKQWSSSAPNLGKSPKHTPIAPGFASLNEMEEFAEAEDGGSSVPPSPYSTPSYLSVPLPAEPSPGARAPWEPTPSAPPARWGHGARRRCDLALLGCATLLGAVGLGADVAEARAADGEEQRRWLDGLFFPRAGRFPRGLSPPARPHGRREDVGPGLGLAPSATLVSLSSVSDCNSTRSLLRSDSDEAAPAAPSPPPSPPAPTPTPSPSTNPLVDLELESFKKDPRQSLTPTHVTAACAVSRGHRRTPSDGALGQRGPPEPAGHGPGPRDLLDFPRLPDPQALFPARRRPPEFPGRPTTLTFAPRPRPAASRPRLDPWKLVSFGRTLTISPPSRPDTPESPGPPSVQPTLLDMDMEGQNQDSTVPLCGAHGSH
# [15] = molecular target: Myosin light chain kinase family member 4 (Homo sapiens) (UniProt Q86YV6); experiment: Binding affinity to wild-type human partial length MYLK4 (V79 to S380 residues) expressed in bacterial expression system assessed as residual binding level at 10 uM by Kinomescan method relative to control
# [16] = molecular target: Serine/threonine-protein kinase Nek3 (Homo sapiens) (UniProt P51956); experiment: Binding affinity to wild-type human full length NEK3 (M1 to R506 residues) expressed in mammalian expression system assessed as residual binding level at 10 uM by Kinomescan method relative to control
# [17] = molecular target: Phosphorylase b kinase gamma catalytic chain, skeletal muscle/heart isoform (Homo sapiens) (UniProt Q16816); experiment: Binding affinity to wild-type human full length PHKG1 (M1 to Y387 residues) expressed in bacterial expression system assessed as residual binding level at 10 uM by Kinomescan method relative to control
# Phosphorylase b kinase gamma catalytic chain, skeletal muscle/heart isoform (Homo sapiens), sequence (Q16816 whole entry, looked up, the tested form may be a part, canonical isoform): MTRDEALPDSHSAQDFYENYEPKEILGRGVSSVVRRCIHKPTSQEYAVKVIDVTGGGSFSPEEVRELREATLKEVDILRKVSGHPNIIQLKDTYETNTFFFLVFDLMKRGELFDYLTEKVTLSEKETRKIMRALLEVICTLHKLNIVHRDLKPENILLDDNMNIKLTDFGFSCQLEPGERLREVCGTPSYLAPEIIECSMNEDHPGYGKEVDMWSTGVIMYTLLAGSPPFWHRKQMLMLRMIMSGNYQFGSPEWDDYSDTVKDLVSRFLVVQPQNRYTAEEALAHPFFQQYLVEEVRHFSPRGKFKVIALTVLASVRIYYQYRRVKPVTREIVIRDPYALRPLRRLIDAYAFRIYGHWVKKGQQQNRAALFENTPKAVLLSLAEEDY
# [18] = test system: Phosphatidylinositol 4,5-bisphosphate 3-kinase catalytic subunit alpha isoform (Homo sapiens), P42336 [E545K]; experiment: Binding affinity to human partial length PIK3CA E545K mutant (R108 to N1068 residues) expressed in mammalian expression system assessed as residual binding level at 10 uM by Kinomescan method relative to control
# Phosphatidylinositol 4,5-bisphosphate 3-kinase catalytic subunit alpha isoform (Homo sapiens), P42336 [E545K], sequence (P42336 whole entry E545K, the tested form may be a part, canonical isoform): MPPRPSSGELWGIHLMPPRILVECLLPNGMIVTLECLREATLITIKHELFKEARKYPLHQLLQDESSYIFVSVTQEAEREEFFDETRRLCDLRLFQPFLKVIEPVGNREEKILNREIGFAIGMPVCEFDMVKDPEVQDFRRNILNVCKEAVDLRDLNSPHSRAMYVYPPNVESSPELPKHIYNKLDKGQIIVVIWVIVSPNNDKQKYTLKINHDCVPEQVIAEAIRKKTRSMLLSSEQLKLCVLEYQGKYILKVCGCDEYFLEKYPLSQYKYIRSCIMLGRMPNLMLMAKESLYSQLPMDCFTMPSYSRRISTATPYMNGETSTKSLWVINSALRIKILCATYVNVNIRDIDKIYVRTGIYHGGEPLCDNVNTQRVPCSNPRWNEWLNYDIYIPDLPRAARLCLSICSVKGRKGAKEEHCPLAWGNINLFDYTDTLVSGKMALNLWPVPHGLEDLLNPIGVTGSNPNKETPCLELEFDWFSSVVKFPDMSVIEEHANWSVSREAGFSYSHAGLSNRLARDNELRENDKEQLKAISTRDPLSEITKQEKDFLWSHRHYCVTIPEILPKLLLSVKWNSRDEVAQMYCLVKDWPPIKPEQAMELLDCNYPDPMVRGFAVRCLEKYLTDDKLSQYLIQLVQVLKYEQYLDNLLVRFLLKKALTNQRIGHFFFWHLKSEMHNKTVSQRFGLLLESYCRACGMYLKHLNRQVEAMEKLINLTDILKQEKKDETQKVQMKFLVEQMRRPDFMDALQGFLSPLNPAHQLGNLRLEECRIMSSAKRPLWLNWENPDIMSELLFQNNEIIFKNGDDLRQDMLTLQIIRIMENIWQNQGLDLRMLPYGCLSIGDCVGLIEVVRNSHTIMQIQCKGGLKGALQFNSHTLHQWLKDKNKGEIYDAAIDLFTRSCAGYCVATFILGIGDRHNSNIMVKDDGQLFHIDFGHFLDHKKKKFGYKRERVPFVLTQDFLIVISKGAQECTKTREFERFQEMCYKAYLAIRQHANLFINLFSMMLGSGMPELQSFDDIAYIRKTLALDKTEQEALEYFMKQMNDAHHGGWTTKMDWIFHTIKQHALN
# [19] = molecular target: Phosphatidylinositol 4,5-bisphosphate 3-kinase catalytic subunit beta isoform (Homo sapiens) (UniProt P42338); experiment: Binding affinity to wild-type human partial length PIK3CB (P118 to S1070 residues) expressed in mammalian expression system assessed as residual binding level at 10 uM by Kinomescan method relative to control
# [20] = molecular target: Serine/threonine-protein kinase SIK1 (Homo sapiens) (UniProt P57059); experiment: Binding affinity to wild-type human partial length SIK (M1 to Y304 residues) expressed in bacterial expression system assessed as residual binding level at 10 uM by Kinomescan method relative to control
# Serine/threonine-protein kinase SIK1 (Homo sapiens), sequence (P57059 whole entry, the tested form may be a part): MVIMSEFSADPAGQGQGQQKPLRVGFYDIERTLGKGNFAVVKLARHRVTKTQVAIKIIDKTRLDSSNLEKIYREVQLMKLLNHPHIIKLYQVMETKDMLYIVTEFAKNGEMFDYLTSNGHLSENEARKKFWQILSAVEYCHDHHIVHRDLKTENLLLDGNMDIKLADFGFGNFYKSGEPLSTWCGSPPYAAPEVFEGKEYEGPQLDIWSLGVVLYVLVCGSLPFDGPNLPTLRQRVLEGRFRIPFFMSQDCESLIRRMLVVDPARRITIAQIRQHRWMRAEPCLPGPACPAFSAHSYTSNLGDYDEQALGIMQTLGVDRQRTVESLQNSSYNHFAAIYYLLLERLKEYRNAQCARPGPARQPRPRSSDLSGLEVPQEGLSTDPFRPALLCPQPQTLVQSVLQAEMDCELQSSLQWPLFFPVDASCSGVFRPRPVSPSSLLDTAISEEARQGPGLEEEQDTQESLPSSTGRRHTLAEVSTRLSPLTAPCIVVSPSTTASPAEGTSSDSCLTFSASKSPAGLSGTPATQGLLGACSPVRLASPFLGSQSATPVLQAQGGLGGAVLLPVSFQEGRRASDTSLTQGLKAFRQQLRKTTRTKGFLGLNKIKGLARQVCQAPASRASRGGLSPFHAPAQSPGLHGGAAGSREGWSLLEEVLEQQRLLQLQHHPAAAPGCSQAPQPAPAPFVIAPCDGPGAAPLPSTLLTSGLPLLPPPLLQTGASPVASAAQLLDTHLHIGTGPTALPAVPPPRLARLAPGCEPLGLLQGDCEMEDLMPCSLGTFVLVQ
# [21] = molecular target: SNF-related serine/threonine-protein kinase (Homo sapiens) (UniProt Q9NRH2); experiment: Binding affinity to wild-type human partial length SNRK (M1 to E339 residues) expressed in mammalian expression system assessed as residual binding level at 10 uM by Kinomescan method relative to control
# [22] = molecular target: Serine/threonine-protein kinase TAO2 (Homo sapiens) (UniProt Q9UL54); experiment: Binding affinity to wild-type human partial length TAOK2 (M1 to A320 residues) expressed in mammalian expression system assessed as residual binding level at 10 uM by Kinomescan method relative to control
# [23] = molecular target: Serine/threonine-protein kinase ULK2 (Homo sapiens) (UniProt Q8IYT8); experiment: Binding affinity to wild-type human partial length ULK2 (M1 to S301 residues) expressed in mammalian expression system assessed as residual binding level at 10 uM by Kinomescan method relative to control
# Serine/threonine-protein kinase ULK2 (Homo sapiens), sequence (Q8IYT8 whole entry, the tested form may be a part): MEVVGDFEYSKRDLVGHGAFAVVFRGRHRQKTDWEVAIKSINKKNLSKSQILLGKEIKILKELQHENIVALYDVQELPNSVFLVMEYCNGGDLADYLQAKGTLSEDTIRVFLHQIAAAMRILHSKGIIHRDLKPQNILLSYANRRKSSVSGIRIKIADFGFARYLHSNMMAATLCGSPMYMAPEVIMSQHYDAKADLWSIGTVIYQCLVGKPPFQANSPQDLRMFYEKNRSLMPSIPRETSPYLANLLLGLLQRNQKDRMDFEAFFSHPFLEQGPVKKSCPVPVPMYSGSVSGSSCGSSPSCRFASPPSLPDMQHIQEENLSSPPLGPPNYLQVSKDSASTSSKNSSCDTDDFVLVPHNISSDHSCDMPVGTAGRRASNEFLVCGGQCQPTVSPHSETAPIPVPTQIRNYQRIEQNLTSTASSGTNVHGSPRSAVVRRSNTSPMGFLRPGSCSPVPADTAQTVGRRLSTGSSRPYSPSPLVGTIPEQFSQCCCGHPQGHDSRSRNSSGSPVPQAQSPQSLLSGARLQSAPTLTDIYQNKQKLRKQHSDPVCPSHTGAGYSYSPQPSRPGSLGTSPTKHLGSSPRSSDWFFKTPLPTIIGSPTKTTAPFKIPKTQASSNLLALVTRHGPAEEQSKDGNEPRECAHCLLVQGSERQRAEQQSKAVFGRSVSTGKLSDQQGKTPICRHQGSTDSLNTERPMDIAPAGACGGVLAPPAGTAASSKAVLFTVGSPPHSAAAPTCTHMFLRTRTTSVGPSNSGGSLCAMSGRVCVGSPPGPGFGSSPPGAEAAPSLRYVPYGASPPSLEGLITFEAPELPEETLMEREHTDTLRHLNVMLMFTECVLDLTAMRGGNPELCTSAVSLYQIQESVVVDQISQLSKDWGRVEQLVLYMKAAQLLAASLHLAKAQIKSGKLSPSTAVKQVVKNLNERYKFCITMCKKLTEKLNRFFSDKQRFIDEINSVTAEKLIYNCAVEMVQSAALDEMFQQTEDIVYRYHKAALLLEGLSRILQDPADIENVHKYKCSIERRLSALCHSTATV
# [24] = molecular target: Wee1-like protein kinase 2 (Homo sapiens) (UniProt P0C1S8); experiment: Binding affinity to wild-type human partial length WEE2 (M204 to K492 residues) expressed in bacterial expression system assessed as residual binding level at 10 uM by Kinomescan method relative to control
structure (smiles),measurement,setting,value
CC(C)N1C(=O)C(NCCCN(C)C)=C(c2cn(C)c3ccccc23)C1=O.Cl,Activity,[1],84%
same,Activity,[2],93%
same,Activity,[3],100%
same,Activity,[4],84%
same,Activity,[5],88%
same,Activity,[6],100%
same,Activity,[7],94%
same,Activity,[8],93%
same,Activity,[9],91%
same,Activity,[10],97%
same,Activity,[11],94%
same,Activity,[12],99%
same,Activity,[13],95%
same,Activity,[14],83%
same,Activity,[15],100%
same,Activity,[16],94%
same,Activity,[17],94%
same,Activity,[18],93%
same,Activity,[19],89%
same,Activity,[20],95%
same,Activity,[21],91%
same,Activity,[22],94%
same,Activity,[23],80%
same,Activity,[24],100%
